Reference: US9045434B1, “Compositions and methods of treatment for myocilin glaucoma by selectively inhibiting GRP94” (University of South Florida, priority 2012, dated 2015)
pIC50: −log10 of the molar value.

Assays:
[1] = test system: Hsp90α/β client proteins Raf and Akt; experiment: Western blot of Hsp90α/β client proteins in HEK293 cell lysates; format: cell-based, human
Experimental: (§1) GRP94 and BiP were detected by the anti-KDEL antibody. *, an unknown KDEL-containing band. […] Cell survival was measured by XTT assay (n=4).
In contrast, loss of functional Hsp90α or Hsp90β results in cell death. […] To support these findings, western blot analyses of Hsp90α/β client proteins were performed from HEK293 cell lysates. Prototypical pan-Hsp90 inhibitors induce proteasome-mediated degradation of Hsp90α/β client substrates.
Cells were harvested in cold PBS and lysed in mammalian protein extraction reagent (MPER, Pierce) and protease inhibitors (Roche) on ice for 1 h. Lysates were clarified at 14,000 g for 10 min at 4° C. Protein concentrations were determined with the Pierce BCA assay kit per the manufacturer's instructions. Equal amounts of protein (10 μg) were electrophoresed under reducing conditions, transferred to a PVDF membrane, and immunoblotted with the corresponding specific antibodies. Membranes were incubated with an appropriate horseradish peroxidase-labeled secondary anti-body, developed with chemiluminescent substrate, and visualized.

[2] = test system: Drosophila larvae (Gp93); experiment: Drosophila larval growth on supplemented fly food; format: in vivo; conditions: for effect on Drosophila larval growth: dietary, 250 μg/ml to 1 mg/ml in fly food, first instar w1118 larvae
From the text: (Maynard, J. C. et al. Gp93, the Drosophila GRP94 ortholog, is required for gut epithelial homeostasis and nutrient assimilation-coupled growth control. Dev. Biol. 339, 295-306, (2010)). In the Drosophila model, maternal Gp93 is sufficient to support embryogenesis in Gp93 homozygous null embryos. In the absence of zygotic expression of Gp93, however, larvae display a pronounced growth defect, commensurate with disrupted gut epithelial morphology, decreased gut nutrient uptake, and marked aberrations in copper cell structure and function. As a consequence, loss of Gp93 expression is larval lethal in Drosophila.
To determine the effects of compound 2 on Drosophila larval growth, first instar wild type (w1118) larvae were placed onto fly food supplemented with either no supplement (A), 0.1% (B), 0.3% (C), or 0.5% (D) DMSO (vehicle controls) or fly food supplemented with 250 μg/ml (E), 500 μg/ml (F), 750 μg/ml (G) or 1 mg/ml (H) compound 2. […] In parallel experiments, larval gut tissue was obtained from each of the feeding conditions and gut epithelial morphology evaluated by fluorescence microscopy. […] Pharmacokinetic studies of compound absorption and metabolism may provide addition insights into this partial phenotypic behavior.

[3] = test system: IGF-II secretion; experiment: IGF-II secretion by serum-starved C2C12 cells, ELISA; format: cell-based; conditions: 10 μM, 48 h
From the text: IGF-II is a second well-defined Grp94-dependent client protein and active Grp94 is required for the secretion of IGF-II (Ostrovsky et al., 2009). […] (Wanderling, S. et al. GRP94 Is Essential for Mesoderm Induction and Muscle Development Because It Regulates Insulin-like Growth Factor Secretion. Mol. Biol. Cell 18, 3764-3775, (2007); Ostrovsky, O., Eletto, D., Makarewich, C., Barton, E. R. & Argon, Y. Glucose regulated protein 94 is required for muscle differentiation through its control of the autocrine production of insulin-like growth factors. BBA—Mol. Cell Res. 1803, 333-341, (2010); Ostrovsky, O., Ahmed, N. T. & Argon, Y. The Chaperone Activity of GRP94 Toward Insulin-like Growth Factor II Is Necessary for the Stress Response to Serum Deprivation. Mol. Biol. Cell 20, 1855-1864, (2009)). Accordingly, serum-starved C2C12 cells were treated with increasing concentrations of compound 2 and the secretion of IGF-II was measured by ELISA (FIG. 5A).
For IGF-II ELISA, plates were coated with anti-IGF-II (MAb 792, R&D Systems) and incubated with the test cell media. The bound IGF-II was detected with a biotinylated anti-IGF-II antibody (BAF792, R&D Systems) and developed with streptavidin-HRP (R&D Systems) according to the manufacturer's recommended procedure. […] Data were acquired in duplicate on a microtiter-plate reader (Dynatech Laboratories, Chantilly, Va.) at 450 nm.

[4] = test system: BiP expression; experiment: Induction of BiP expression, immunoblot
From the text: Grp94, BiP and PDIA6 were detected with the monoclonal anti-KDEL antibody, AKT by rabbit anti-serum. 14-3-3 served as loading control. Numbers below BiP, Grp94, and AKT bands are the relative expression levels, determined by densitometry.
The inventors therefore assessed the ability of 2 to cause BiP up-regulation, in comparison to pan-Hsp90 inhibitors.

[5] = test system: C2C12 cells; experiment: C2C12 cell viability, XTT assay; conditions: C2C12 cells treated as in the IGF-II assay
Experimental: The viability of cells treated as in A was measured at each of the indicated concentrations by the XTT assay.
C2C12 cells (ATCC, Rockville, Md.) were induced to differentiate either by complete withdrawal of serum or by shifting to medium supplemented with 2% house serum. […] Cell growth was measured with the XTT formazan colorimetric assay (Roche), cells were grown in 3% serum, to limit the background of the assay.

[6] = test system: I477N mutant myocilin; experiment: I477N mutant myocilin levels in HEK iI477N cells, Western blot; format: cell-based, human; conditions: for effect on I477N mutant myocilin levels: 24 hours, indicated concentrations
Experimental: (§2) FIGS. 16A-E are a series of images depicting inhibition of the Hsp90 chaperone complex reduces the levels of the disease-causing I477N myocilin. Western blot of lysates from HEK iI477N cells treated with the indicated concentrations of the pan Hsp90/Grp94 inhibitors 17-AAG (A) and celastrol (B) for 24 hours. (C) Western blot of lysates from HEK cells conditionally over-expressing I477N myocilin that were treated with 7.5 μM of 17-AAG or vehicle (Veh) and harvested at indicated time points. (D) Dot blot of the cell culture media of HEK iWT cells that were treated with the indicated concentration of 17AAG. (E) Western blot of lysates from HEK iI477N cells and treated with indicated concentrations of a Grp94 selective inhibitor for 24 hours.
A well-established Human Embryonic Kidney (HEK) cell model that conditionally overexpresses wildtype (iWT) or I477N mutant myocilin (iI477N) was used in these studies. (Joe M K & Tomarev S I (2010) Expression of myocilin mutants sensitizes cells to oxidative stress-induced apoptosis: implication for glaucoma pathogenesis. Am J Pathol 176(6):2880-2890) In this inducible and stable cell line, wildtype or I477N myocilin harbors a Flag-tag to ease downstream detection. The inventors confirmed wildtype myocilin secretion and I477N intracellular retention using dot blot analysis of the cell culture media or Western blot of the lysates, respectively (FIG. 10A). The inventors further corroborated ER retention of I477N myocilin by immunofluorescence co-localization (FIG. 10B).
(§3) Small-molecule inhibition of Hsp90, including Grp94, is in clinical development for a number of diseases, and since Grp94 sequesters mutant myocilin from ERAD and Grp94 knockdown enables efficient clearance, the effects of Hsp90 inhibitors were tested. […] 17AAG facilitated reductions in I477N myocilin as soon as 3 hours after treatment (FIG. 16C). As expected, levels of wildtype myocilin were unaffected by 17-AAG, even at a very high dose (FIG. 16D). […] (Rousaki A, et al. (2011) Allosteric Drugs: The Interaction of Antitumor Compound MKT-077 with Human Hsp70 Chaperones. J Mol Biol 411(3):614-632)
Cells were plated and grown as previously described. […] Inducible cells were treated with […] of Tetracycline to induce myocilin expression, 24 hours prior to transfection. SiRNA transfections were performed with Silentfect reagent (BioRad). DNA Transfections were performed with Lipofectamine 2000 (Invitrogen) for 48 hours. The cells were harvested in Mammalian Protein Extraction Reagent (M-PER) buffer (Pierce) containing 1× protease inhibitor mixture (Calbiochem), 100 mM phenylmethylsulfonyl fluoride, and 1× phosphatase inhibitor II and III cocktails (Sigma).
Cells were treated with Grp94 inhibitor and Hsp70/Grp78 inhibitor for 24 hours. Proteasomal inhibition was achieved by treating cells with 0.6 uM and 0.8 uM of epoxomicin.
Western blot and coimmunoprecipitation analyses were performed as previously described. (Abisambra J F, et al. (2012) DnaJA1 Antagonizes Constitutive Hsp70-Mediated Stabilization of Tau. J Mol Biol) Protein samples were prepared using 2× Laemmli sample buffer (Bio-Rad). Samples were boiled for 5-10 min and then loaded onto a 10 well, 10% Tris-glycine gels (Invitrogen) or 18-well, 10% criterion gels (Bio-Rad). The gels were transferred onto PVDF membranes (Millipore) and then blocked for 1 hr at room temperature with 7% milk. […]

[7] = test system: wildtype myocilin; experiment: Wildtype myocilin in HEK iWT cells, dot blot of media; format: cell-based, human; conditions: even at a very high dose
Experimental: as §2
as §3, with “411(3):614-632) […]” for “411(3):614-632)”

[8] = test system: HeLa cells; experiment: HeLa cell survival, XTT assay (GRP94-sufficient or -deficient cells); format: cell-based; conditions: Homo sapiens, 48 hrs, regardless of the presence of GRP94, read-out: IC50 for HeLa cell viability
Experimental: as §1
Similar results were obtained with other cell lines (e.g. C2C12 in FIG. 6).

[9] = test system: full-length Grp94 versus yHsp82; conditions: cited from earlier work

In the case of `COC(=O)c1c(O)cc(O)c(Cl)c1CCc1nccn1Cc1ccccc1` [Compound 2], the “concentration up to which no degradation of Raf or Akt (cytoplasmic client proteins) is induced” value ([1]; HEK293 cells, 24 h) was 100 µM, the “induction of HSP70” value ([1]; compound 2 at 100 μM, GDA positive control 500 nM, HEK293) was “induction of HSP70” and the “effect on Drosophila larval growth” value [2] was “dramatic growth phenotype”. The “effect on Drosophila larval growth” value ([2]; listed as compound 2) was “clearly stunted the growth of drosophila larvae in a dose-dependent manner”, the “effects on copper cell structure (gut epithelial morphology)” value ([2]; same feeding conditions, data not shown) was “No grossly discernible effects” and the “reduction of IGF-II secretion” value [3] was “Approximately 60%”. The “concentration above which BiP expression is induced” value [4] was “above 200 μM”, the “up-regulation of BiP” value ([4]; 0-75 μM) was “did not lead to up-regulation of BiP” and the “effect on Akt at BiP-inducing concentrations” value ([4]; above 200 μM) was “destabilized Akt”. For the same compound, the “effect on cell viability” value [5] was “little effect on cell viability”.

In the case of `C=CCNC1=C2C[C@@H](C)C[C@H](OC)[C@H](O)[C@@H](C)/C=C(\C)[C@H](OC(N)=O)[C@@H](OC)/C=C\C=C(/C)C(=O)NC(=CC1=O)C2=O` [Compound 17-AAG], the “time after treatment at which reductions in I477N myocilin are seen” value ([6]; 7.5 μM) was 3 h, the “effect on I477N mutant myocilin levels” value [6] was “dose-dependent reductions” and the “levels of wildtype myocilin” value [7] was “unaffected”. For the same compound, the “up-regulation of BiP” value ([4]; 25 μM, data not shown) was “did cause BiP up-regulation”.

For `C[C@@H]1C[C@H]2O[C@@H]2/C=C\C=C\C(=O)Cc2c(Cl)c(O)cc(O)c2C(=O)O1` [RDC, radicicol], the “up-regulation of BiP” value ([4]; 10 μM) was “did cause BiP up-regulation” and the pIC50 [8] was 5.10.

In the case of `CCn1c(=Cc2cccc[n+]2C)sc(=C2Sc3ccccc3N2C)c1=O.[Cl-]` [YM1], the “effect on I477N mutant myocilin levels” value [6] was “did not reduce I477N”.

With `CC[C@H](C)[C@H](NC(=O)[C@H]([C@@H](C)CC)N(C)C(C)=O)C(=O)N[C@H](C(=O)N[C@@H](CC(C)C)C(=O)[C@@]1(C)CO1)[C@@H](C)O` [epoxomicin] the “effect on clearance of I477N myocilin” value ([6]; Grp94 knockdown) was “no effect on clearance” and the “effect on clearance of I477N myocilin” value ([6]; control siRNA conditions) was “blocked the clearance of I477N myocilin”.

In the case of radamide [RDA], the “binding affinity for full-length Grp94 relative to yHsp82” value [9] is given as “approximately 2 fold”.
